pEC50: −log10 of the molar value.
How the values were obtained:
PI3Kα = biological target: T1, PI3Kα (Mus musculus, UniProt P42337); assay: PI3Ks isoform in cell EC50 assay (AKT phosphorylation, Western Blotting); type: cell-based; details: NIH-3T3, 20ng/ml PDGF-BB, read-out: cellular EC50 PI3K Alpha
T1 construct: endogenous in cells; host or cells: NIH-3T3

PI3Kβ = biological target: T2, PI3Kβ (Mus musculus, UniProt Q8BTI9); assay: as above; type: cell-based; details: NIH-3T3, 5μM LPA, read-out: cellular EC50 PI3K Beta
T2 construct: endogenous in cells; host or cells: NIH-3T3
T2 sequence (Q8BTI9 whole entry): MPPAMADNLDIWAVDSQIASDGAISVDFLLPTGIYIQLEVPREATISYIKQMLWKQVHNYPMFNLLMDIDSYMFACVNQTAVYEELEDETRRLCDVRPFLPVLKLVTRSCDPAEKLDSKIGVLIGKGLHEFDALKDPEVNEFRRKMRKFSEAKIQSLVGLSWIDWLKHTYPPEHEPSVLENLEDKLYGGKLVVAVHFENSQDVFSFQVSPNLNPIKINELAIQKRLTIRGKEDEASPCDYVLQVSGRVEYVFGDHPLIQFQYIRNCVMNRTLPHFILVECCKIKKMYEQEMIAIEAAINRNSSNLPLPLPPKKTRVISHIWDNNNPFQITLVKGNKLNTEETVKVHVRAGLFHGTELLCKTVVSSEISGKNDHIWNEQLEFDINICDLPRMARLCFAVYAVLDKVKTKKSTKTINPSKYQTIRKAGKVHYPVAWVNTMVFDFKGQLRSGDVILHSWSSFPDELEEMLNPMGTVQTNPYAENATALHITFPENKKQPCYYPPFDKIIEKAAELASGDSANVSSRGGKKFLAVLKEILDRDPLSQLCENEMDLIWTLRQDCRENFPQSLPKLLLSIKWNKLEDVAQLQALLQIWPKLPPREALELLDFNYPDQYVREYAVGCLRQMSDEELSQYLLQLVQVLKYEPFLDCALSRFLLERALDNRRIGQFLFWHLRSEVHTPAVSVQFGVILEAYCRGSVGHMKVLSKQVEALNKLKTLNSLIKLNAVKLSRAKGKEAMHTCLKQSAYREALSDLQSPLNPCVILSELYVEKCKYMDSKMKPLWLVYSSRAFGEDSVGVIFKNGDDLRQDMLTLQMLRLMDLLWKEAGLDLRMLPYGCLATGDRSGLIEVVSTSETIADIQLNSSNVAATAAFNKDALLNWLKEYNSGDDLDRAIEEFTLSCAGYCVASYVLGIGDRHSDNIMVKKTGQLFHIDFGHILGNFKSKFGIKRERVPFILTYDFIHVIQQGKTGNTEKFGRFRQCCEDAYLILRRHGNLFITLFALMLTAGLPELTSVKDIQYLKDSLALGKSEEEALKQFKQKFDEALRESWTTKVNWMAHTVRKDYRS
T2 sequence (P26450 whole entry partner): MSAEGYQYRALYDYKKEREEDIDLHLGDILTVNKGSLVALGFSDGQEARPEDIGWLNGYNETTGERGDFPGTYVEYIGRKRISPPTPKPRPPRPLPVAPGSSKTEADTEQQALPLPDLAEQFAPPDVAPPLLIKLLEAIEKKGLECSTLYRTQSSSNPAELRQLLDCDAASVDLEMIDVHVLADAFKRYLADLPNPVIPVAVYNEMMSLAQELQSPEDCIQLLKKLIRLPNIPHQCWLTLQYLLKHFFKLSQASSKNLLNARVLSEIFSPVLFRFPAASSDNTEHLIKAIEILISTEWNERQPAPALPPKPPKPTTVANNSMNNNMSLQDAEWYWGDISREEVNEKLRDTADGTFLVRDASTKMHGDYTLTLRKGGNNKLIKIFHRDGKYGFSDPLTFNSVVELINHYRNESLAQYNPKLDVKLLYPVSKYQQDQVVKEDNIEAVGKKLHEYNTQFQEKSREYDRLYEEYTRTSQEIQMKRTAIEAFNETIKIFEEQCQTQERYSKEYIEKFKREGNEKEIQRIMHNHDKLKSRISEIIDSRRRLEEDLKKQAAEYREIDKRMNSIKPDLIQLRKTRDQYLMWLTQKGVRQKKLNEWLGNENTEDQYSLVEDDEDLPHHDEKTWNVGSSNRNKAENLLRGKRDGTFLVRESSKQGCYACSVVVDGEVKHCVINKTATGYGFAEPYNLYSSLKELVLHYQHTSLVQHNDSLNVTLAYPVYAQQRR

AMO-1 = assay: Anti-proliferative assay; type: cell-based; details: Homo sapiens, AMO1; AMO-1, MM; 72 hours, CellTiter-Glo
Description: (§1) Cells were grown in 96-well culture plates (3000-4000/well). […] Cell proliferation was determined after treatment with compounds for 72 hours. Cell viability was measured using the CellTiter–Glo Assay Kit (Promega, USA), according to the manufacturer's instructions, and luminescence was measured in a multi-label reader (Envision, PerkinElmer, USA). Data were normalized to control groups (DMSO) and represented by the mean of three independent measurements with standard error <20%. GI50 values were calculated using Prism 5.0 (GraphPad Software, San Diego, CA).

CMK = assay: Anti-proliferative assay; type: cell-based; details: Homo sapiens, AML, 72 hours, CellTiter-Glo
Description: as §1

HEL = assay: Anti-proliferative assay; type: cell-based; details: Homo sapiens, AML-M6, 72 hours, CellTiter-Glo
Description: as §1

HL-60 = assay: Anti-proliferative assay; type: cell-based; details: Homo sapiens; HL-60, AML-M2; 72 hours, CellTiter-Glo
Description: as §1

HT = assay: Anti-proliferative assay; type: cell-based; details: Homo sapiens, B-cell lymphoma, 72 hours, CellTiter-Glo
Description: as §1

Hs 505T = assay: Anti-proliferative assay; type: cell-based; details: Homo sapiens, CLL, 72 hours, CellTiter-Glo
Description: as §1

JVM-2 = assay: Anti-proliferative assay; type: cell-based; details: Homo sapiens; JVM-2, Mantle cell lymphoma; 72 hours, CellTiter-Glo
Description: as §1

MEC-1 = assay: Anti-proliferative assay; type: cell-based; details: Homo sapiens, MEC1; MEC-1, CLL; 72 hours, CellTiter-Glo
Description: as §1

MEC-2 = assay: Anti-proliferative assay; type: cell-based; details: Homo sapiens, MEC2; MEC-2, CLL; 72 hours, CellTiter-Glo
Description: as §1

MOLM-13 = assay: Anti-proliferative assay; type: cell-based; details: Homo sapiens; MOLM-13, AML-M5; 72 hours, CellTiter-Glo
Description: as §1

MOLM-14 = assay: Anti-proliferative assay; type: cell-based; details: Homo sapiens; MOLM-14, AML-M5; 72 hours, CellTiter-Glo
Description: as §1

MV4-11 = assay: Anti-proliferative assay; type: cell-based; details: Homo sapiens; MV4-11, AML; 72 hours, CellTiter-Glo
Description: as §1

NALM-6 = assay: Anti-proliferative assay; type: cell-based; details: Homo sapiens, 72 hours, CellTiter-Glo
Description: as §1

NB4 = assay: Anti-proliferative assay; type: cell-based; details: Homo sapiens; NB4, AML-3; 72 hours, CellTiter-Glo
Description: as §1

NOMO-1 = assay: Anti-proliferative assay; type: cell-based; details: Homo sapiens; NOMO-1, AML-M5; 72 hours, CellTiter-Glo
Description: as §1

Namalwa = assay: Anti-proliferative assay; type: cell-based; details: Homo sapiens, Burrkit lymphoma, 72 hours, CellTiter-Glo
Description: as §1

OCI-AML-2 = assay: Anti-proliferative assay; type: cell-based; details: Homo sapiens, OCI-AML2; OCI-AML-2, AML-M4; 72 hours, CellTiter-Glo
Description: as §1

OCI-AML-3 = assay: Anti-proliferative assay; type: cell-based; details: Homo sapiens; OCI-AML-3, AML-M4; 72 hours, CellTiter-Glo
Description: as §1

PF382 = assay: Anti-proliferative assay; type: cell-based; details: Homo sapiens, PF-382; PF382, ALL; 72 hours, CellTiter-Glo
Description: as §1

RPMI8226 = assay: Anti-proliferative assay; type: cell-based; details: Homo sapiens, RPMI-8226; RPMI8226, MM; 72 hours, CellTiter-Glo
Description: as §1

Ramos(new) = assay: Anti-proliferative assay; type: cell-based; details: Homo sapiens, Burrkit lymphoma, 72 hours, CellTiter-Glo
Description: as §1

SKM-1 = assay: Anti-proliferative assay; type: cell-based; details: Homo sapiens; SKM-1, AML-M5; 72 hours, CellTiter-Glo
Description: as §1

U937 = assay: Anti-proliferative assay; type: cell-based; details: Homo sapiens, U-937; U937, AML; 72 hours, CellTiter-Glo
Description: as §1

CLL patient primary cell = assay: Anti-proliferative efficacy against patient primary cells; type: cell-based; details: Homo sapiens
Description: Peripheral blood mononuclear cells (PBMCs) from individuals with CLL were isolated by density centrifugation through Ficoll and frozen for each subject. Those subjects with low white counts whose CLL cell purity was expected to be < 85% underwent B cell isolation using RosetteSep. The protocol was approved by the Dana-Farber Harvard Cancer Center Institutional Review Board and all subjects signed written informed consent prior to participation.
as §1

AML patient primary cell = assay: as above; type: cell-based; details: Homo sapiens
Description: Mononuclear cells were isolated from AML patients. Mononuclear cells were isolated by density gradient centrifugation through Ficoll-Plaque Plus (Amersham Pharmacia Biotech AB, Uppsala, Sweden) at 2000 rpm for 30 minutes, followed by two washes in 1X PBS. Freeze-thawed cells were then cultured in liquid culture (DMEM, supplemented with 20% FBS). All blood and bone marrow samples from AML patients were obtained through written consent under approval of the Dana Farber Cancer Institute Institutional Review Board. The ethics committees approved the consent procedure.
as §1

PI3Kγ = PI3Kγ (Mus musculus, UniProt Q9JHG7); assay: cell-based
Chain of PI3Kγ (Q9JHG7 whole entry): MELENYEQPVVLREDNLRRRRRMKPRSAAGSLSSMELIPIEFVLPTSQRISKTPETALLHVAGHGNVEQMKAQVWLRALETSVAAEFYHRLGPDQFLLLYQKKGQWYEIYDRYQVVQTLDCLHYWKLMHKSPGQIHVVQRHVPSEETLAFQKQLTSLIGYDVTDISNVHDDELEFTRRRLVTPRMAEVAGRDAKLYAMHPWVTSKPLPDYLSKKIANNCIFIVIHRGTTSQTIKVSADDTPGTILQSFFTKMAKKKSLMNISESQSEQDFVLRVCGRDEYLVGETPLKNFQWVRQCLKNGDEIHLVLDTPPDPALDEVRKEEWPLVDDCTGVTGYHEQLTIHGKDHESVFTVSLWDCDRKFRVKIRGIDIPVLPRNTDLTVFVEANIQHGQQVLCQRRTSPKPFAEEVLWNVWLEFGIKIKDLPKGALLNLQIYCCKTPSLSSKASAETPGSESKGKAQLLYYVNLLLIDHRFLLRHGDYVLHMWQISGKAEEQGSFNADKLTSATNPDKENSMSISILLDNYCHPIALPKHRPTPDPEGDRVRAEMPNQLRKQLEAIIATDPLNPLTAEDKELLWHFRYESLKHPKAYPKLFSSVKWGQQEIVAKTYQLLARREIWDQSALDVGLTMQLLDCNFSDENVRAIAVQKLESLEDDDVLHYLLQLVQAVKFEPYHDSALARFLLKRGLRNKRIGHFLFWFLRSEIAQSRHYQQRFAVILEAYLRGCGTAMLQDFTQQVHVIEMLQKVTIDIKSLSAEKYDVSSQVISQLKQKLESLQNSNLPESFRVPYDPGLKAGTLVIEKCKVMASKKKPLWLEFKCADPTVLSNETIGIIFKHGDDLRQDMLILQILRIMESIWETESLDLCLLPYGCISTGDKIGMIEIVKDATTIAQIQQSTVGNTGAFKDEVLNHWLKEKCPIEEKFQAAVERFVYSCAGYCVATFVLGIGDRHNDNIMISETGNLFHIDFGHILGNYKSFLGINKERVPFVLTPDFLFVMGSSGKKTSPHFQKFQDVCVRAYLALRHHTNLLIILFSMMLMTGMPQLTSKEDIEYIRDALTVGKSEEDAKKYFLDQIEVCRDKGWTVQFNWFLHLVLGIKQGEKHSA

T1 sequence (P42337 whole entry, canonical isoform): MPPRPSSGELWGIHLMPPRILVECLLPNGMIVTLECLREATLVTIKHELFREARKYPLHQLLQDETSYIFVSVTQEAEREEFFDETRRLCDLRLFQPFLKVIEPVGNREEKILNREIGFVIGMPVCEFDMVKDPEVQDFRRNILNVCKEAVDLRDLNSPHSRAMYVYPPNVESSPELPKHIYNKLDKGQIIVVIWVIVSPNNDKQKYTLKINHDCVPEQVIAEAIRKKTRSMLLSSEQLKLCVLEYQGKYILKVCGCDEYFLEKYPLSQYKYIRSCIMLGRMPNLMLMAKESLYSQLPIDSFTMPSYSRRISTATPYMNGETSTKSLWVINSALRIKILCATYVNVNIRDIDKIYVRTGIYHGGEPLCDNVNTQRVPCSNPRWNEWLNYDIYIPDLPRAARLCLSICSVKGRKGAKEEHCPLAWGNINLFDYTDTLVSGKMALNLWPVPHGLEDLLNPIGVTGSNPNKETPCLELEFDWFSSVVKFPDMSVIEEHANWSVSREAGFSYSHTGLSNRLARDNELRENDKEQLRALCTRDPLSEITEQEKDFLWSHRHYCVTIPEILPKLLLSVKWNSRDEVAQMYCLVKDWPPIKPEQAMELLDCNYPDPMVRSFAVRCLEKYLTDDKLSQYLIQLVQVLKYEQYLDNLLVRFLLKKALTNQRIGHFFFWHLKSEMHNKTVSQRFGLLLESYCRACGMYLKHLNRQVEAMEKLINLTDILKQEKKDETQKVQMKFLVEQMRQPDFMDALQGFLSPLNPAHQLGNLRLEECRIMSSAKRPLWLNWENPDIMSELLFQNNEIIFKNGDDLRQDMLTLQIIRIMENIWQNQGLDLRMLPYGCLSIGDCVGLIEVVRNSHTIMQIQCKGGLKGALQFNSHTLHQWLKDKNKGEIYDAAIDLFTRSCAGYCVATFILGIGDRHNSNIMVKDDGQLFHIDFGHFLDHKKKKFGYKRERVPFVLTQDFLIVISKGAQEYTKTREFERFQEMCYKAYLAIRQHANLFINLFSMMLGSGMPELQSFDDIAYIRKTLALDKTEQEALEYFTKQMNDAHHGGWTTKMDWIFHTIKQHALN
T1 sequence (P26450 whole entry partner, canonical isoform): as the sequence (P26450 whole entry partner) above

| Compound | pEC50 (PI3Kα) | pEC50 (PI3Kβ) | GI50 (AMO-1) | GI50 (CMK) | GI50 (HEL) | GI50 (HL-60) | GI50 (HT) | GI50 (JVM-2) | GI50 (MOLM-13) | GI50 (MOLM-14) | GI50 (MV4-11) | GI50 (NALM-6) | GI50 (NB4) | GI50 (NOMO-1) | GI50 (Namalwa) | GI50 (OCI-AML-2) | GI50 (OCI-AML-3) | GI50 (PF382) | GI50 (RPMI8226) | GI50 (Ramos(new)) | also measured |
| --- | --- | --- | --- | --- | --- | --- | --- | --- | --- | --- | --- | --- | --- | --- | --- | --- | --- | --- | --- | --- | --- |
| CC[C@H](Nc1ncnc2[nH]cnc12)c1nc2cccc(F)c2c(=O)n1-c1ccccc1 [CAL-101, Idelalisib] | < 5.52 | < 5.52 | > 10000 nM | > 10000 nM | > 10000 nM | > 10000 nM | > 10000 nM | > 10000 nM | > 10000 nM | 7800 nM | > 10000 nM | > 10000 nM | > 10000 nM | > 10000 nM | > 10000 nM | > 10000 nM | 2400 nM | > 10000 nM | > 10000 nM | > 10000 nM | GI50 (Hs 505T): > 10000 nM; GI50 (MEC-1): > 10000 nM; GI50 (MEC-2): > 10000 nM; GI50 (SKM-1): > 10000 nM; GI50 (U937): > 10000 nM; GI50 (CLL patient primary cell; patient primary cell CLL16): > 10000 nM; GI50 (CLL patient primary cell; patient primary cell CLL18): > 10000 nM; GI50 (CLL patient primary cell; patient primary cell CLL19): > 10000 nM; GI50 (AML patient primary cell; AML1, patient primary cell AML1): > 10000 nM; GI50 (AML patient primary cell; AML3, patient primary cell AML3): > 10000 nM; GI50 (AML patient primary cell; patient primary cell AML2): 1010 nM; GI50 (AML patient primary cell; patient primary cell AML4): > 10000 nM; GI50 (AML patient primary cell; patient primary cell AML5): > 10000 nM; GI50 (AML patient primary cell; patient primary cell AML6): > 10000 nM; pEC50 (PI3Kγ): 5.63 |
| CS(=O)(=O)N1CCN(Cc2cc3nc(-c4cccc5[nH]ncc45)nc(N4CCOCC4)c3s2)CC1 [GDC-0941] | 6.20 | 6.75 | 300 nM | 300 nM | > 10000 nM | 160 nM | 500 nM | > 10000 nM | 150 nM | 300 nM | 1400 nM | 390 nM | 1000 nM | 1000 nM | 390 nM | 2000 nM | 730 nM | 460 nM | 2600 nM | 2100 nM | GI50 (SKM-1): 540 nM; GI50 (U937): 1600 nM |

— PMC5078040 (Oncotarget, 2016)
